{"source": "paper PMC10144994", "about": "“Bioactive Metabolite from Endophytic Aspergillus versicolor SB5 with Anti-Acetylcholinesterase, Anti-Inflammatory and Antioxidant Activities: In Vitro and In Silico Studies” (Microorganisms, 2023)", "target": "T1, LOX-1 (lipoxygenase from Glycine max, type I-B) (Glycine max, UniProt P08170)", "T1 construct": "gene LOX1.1", "T1 sequence (P08170 1-839)": "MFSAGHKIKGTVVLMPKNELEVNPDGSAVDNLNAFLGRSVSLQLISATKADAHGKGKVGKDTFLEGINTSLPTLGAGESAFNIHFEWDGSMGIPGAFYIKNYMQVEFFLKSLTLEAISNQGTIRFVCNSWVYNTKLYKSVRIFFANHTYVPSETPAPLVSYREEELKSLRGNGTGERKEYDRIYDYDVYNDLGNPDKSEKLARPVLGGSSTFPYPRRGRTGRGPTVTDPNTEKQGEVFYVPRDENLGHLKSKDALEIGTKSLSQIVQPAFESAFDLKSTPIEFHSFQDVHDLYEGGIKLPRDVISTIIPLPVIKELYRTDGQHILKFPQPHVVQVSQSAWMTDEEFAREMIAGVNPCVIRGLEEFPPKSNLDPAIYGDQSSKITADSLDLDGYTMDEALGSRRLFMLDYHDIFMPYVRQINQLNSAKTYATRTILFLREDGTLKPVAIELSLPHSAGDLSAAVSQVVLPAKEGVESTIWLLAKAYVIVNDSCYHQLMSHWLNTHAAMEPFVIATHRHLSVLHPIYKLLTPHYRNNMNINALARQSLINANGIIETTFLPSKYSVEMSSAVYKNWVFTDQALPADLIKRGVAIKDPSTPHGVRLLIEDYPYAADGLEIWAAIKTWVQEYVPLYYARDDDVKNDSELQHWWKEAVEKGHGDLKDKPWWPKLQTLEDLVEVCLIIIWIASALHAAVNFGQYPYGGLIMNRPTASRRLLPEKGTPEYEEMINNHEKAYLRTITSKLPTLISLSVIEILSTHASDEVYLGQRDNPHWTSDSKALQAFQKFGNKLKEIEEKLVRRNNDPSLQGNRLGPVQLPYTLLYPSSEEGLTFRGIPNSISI", "test": "soybean LOX, linoleic acid substrate, absorbance at […] nm", "type": "biochemical", "data": [{"smiles": "COc1cc(O)c2c(c1)C(=O)c1cc(C)cc(O)c1C2=O", "note": "[C1, 1,8-dihydroxy-3-methoxy-6-methylanthracene-9,10-dione]", "values": [{"measurement": "IC50", "value": 61.7, "unit": "µM"}]}]}
